Results as given in US10206394B2, “Herbicidal compounds” (Syngenta Participations AG, priority 2014, dated 2019).
Where two headings read alike, the source gives them in different places.

Experiments:
Assay in all cases: Glasshouse assay for herbicidal activity (pre- and post-emergence), percentage phytotoxicity
Format in all cases: in vivo
[1] = tested on: Echinochloa crus-galli (ECHCG); settings: Echinochloa crus-galli
Summary of the method: (§1)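 Visual phytotoxicity score, 0% = undamaged to 100% = total kill, read 20 days after treatment for PRE and 15 days for POST. Pots of standard soil; treatment at day 1 (PRE) or roughly day 12 (POST). Glasshouse: 16 h photoperiod, 65% RH, 24/18 or 20/16 °C by climate type.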

[2] = tested on: Alopecurus myosuroides (ALOMY); settings: Alopecurus myosuroides
Summary of the method: as §1

Lolium perenne (LOLPE) = settings: Lolium perenne
Summary of the method: as §1

Avena fatua (AVEFA) = settings: Avena fatua
Summary of the method: as §1

[3] = post-emergence, 360 h, 250 g/ha, post-emergence, 15 DAA, visual assessment (100%=total damage, 0%=no damage), read-out: Post-emergence herbicidal activity (percentage phytotoxicity) ECHCG POST
[4] = pre-emergence, 480 h, 250 g/ha, pre-emergence, 20 DAA, visual assessment (100%=total damage, 0%=no damage), read-out: Pre-emergence herbicidal activity (percentage phytotoxicity) ECHCG PRE
[5] = post-emergence, 360 h, 250 g/ha, post-emergence, 15 DAA, visual assessment (100%=total damage, 0%=no damage), read-out: Post-emergence herbicidal activity (percentage phytotoxicity) ALOMY POST
[6] = pre-emergence, 480 h, 250 g/ha, pre-emergence, 20 DAA, visual assessment (100%=total damage, 0%=no damage), read-out: Pre-emergence herbicidal activity (percentage phytotoxicity) ALOMY PRE
[7] = post-emergence, 360 h, 250 g/ha, post-emergence, 15 DAA, visual assessment (100%=total damage, 0%=no damage), read-out: Post-emergence herbicidal activity (percentage phytotoxicity) LOLPE POST
[8] = pre-emergence, 480 h, 250 g/ha, pre-emergence, 20 DAA, visual assessment (100%=total damage, 0%=no damage), read-out: Pre-emergence herbicidal activity (percentage phytotoxicity) LOLPE PRE
[9] = post-emergence, 360 h, 250 g/ha, post-emergence, 15 DAA, visual assessment (100%=total damage, 0%=no damage), read-out: Post-emergence herbicidal activity (percentage phytotoxicity) AVEFA POST
[10] = pre-emergence, 480 h, 250 g/ha, pre-emergence, 20 DAA, visual assessment (100%=total damage, 0%=no damage), read-out: Pre-emergence herbicidal activity (percentage phytotoxicity) AVEFA PRE
[11] = post-emergence, 360 h, Rate 250 g/ha, post-emergence, visual assessment 15 DAA, 100%=total damage, 0%=no damage, read-out: Post-emergence herbicidal activity (percentage phytotoxicity) ECHCG POST
[12] = pre-emergence, 480 h, Rate 250 g/ha, pre-emergence, visual assessment 20 DAA, 100%=total damage, 0%=no damage, read-out: Pre-emergence herbicidal activity (percentage phytotoxicity) ECHCG PRE
[13] = post-emergence, 360 h, Rate 250 g/ha, post-emergence, visual assessment 15 DAA, 100%=total damage, 0%=no damage, read-out: Post-emergence herbicidal activity (percentage phytotoxicity) ALOMY POST
[14] = pre-emergence, 480 h, Rate 250 g/ha, pre-emergence, visual assessment 20 DAA, 100%=total damage, 0%=no damage, read-out: Pre-emergence herbicidal activity (percentage phytotoxicity) ALOMY PRE
[15] = post-emergence, 360 h, Rate 250 g/ha, post-emergence, visual assessment 15 DAA, 100%=total damage, 0%=no damage, read-out: Post-emergence herbicidal activity (percentage phytotoxicity) LOLPE POST
[16] = pre-emergence, 480 h, Rate 250 g/ha, pre-emergence, visual assessment 20 DAA, 100%=total damage, 0%=no damage, read-out: Pre-emergence herbicidal activity (percentage phytotoxicity) LOLPE PRE
[17] = post-emergence, 360 h, Rate 250 g/ha, post-emergence, visual assessment 15 DAA, 100%=total damage, 0%=no damage, read-out: Post-emergence herbicidal activity (percentage phytotoxicity) AVEFA POST
[18] = pre-emergence, 480 h, Rate 250 g/ha, pre-emergence, visual assessment 20 DAA, 100%=total damage, 0%=no damage, read-out: Pre-emergence herbicidal activity (percentage phytotoxicity) AVEFA PRE

| SMILES | pest or weed control at 250 g/ha [1, 3] [%] | pest or weed control at 250 g/ha [1, 4] [%] | pest or weed control at 250 g/ha [2, 5] [%] | pest or weed control at 250 g/ha [2, 6] [%] | pest or weed control at 250 g/ha (Lolium perenne (LOLPE); [7]) [%] | pest or weed control at 250 g/ha (Lolium perenne (LOLPE); [8]) [%] | pest or weed control at 250 g/ha (Avena fatua (AVEFA); [9]) [%] | pest or weed control at 250 g/ha (Avena fatua (AVEFA); [10]) [%] | other results |
| --- | --- | --- | --- | --- | --- | --- | --- | --- | --- |
| CC#CC(C)(C)NC(=O)CC1CC(=O)C(c2c(C)cc(C)cc2C)C1=O (stereo not shown) [Compound B35] | 70 | 80 | 80 | 90 | 70 | 80 | 70 | 0 |  |
| Cc1cc(-c2ccc(Cl)cc2)cc(C)c1C1C(=O)CC(CC(=O)NC(C)(C)C#N)C1=O (stereo not shown) [Compound B378] |  |  |  |  |  |  |  |  | pest or weed control at 250 g/ha [1, 11]: 100%; pest or weed control at 250 g/ha [1, 12]: 90%; pest or weed control at 250 g/ha [2, 13]: 80%; pest or weed control at 250 g/ha [2, 14]: 70%; pest or weed control at 250 g/ha (Lolium perenne (LOLPE); [15]): 70%; pest or weed control at 250 g/ha (Lolium perenne (LOLPE); [16]): 80%; pest or weed control at 250 g/ha (Avena fatua (AVEFA); [17]): 100%; pest or weed control at 250 g/ha (Avena fatua (AVEFA); [18]): 90% |
| Cc1cc(C)c(C2C(=O)CC(CC(=O)N(C)C(C)(C)C)C2=O)c(C)c1 (stereo not shown) [Compound B80] | 90 | 90 | 80 | 90 | 90 | 100 | 60 | 0 |  |
| COCC(C)(C)NC(=O)CC1CC(=O)C(c2c(C)cc(-c3ncc(Cl)cn3)cc2C)C1=O (stereo not shown) [Compound B344] |  |  |  |  |  |  |  |  | pest or weed control at 250 g/ha [1, 11]: 100%; pest or weed control at 250 g/ha [1, 12]: 100%; pest or weed control at 250 g/ha [2, 13]: 100%; pest or weed control at 250 g/ha [2, 14]: 90%; pest or weed control at 250 g/ha (Lolium perenne (LOLPE); [15]): 90%; pest or weed control at 250 g/ha (Lolium perenne (LOLPE); [16]): 80%; pest or weed control at 250 g/ha (Avena fatua (AVEFA); [17]): 100%; pest or weed control at 250 g/ha (Avena fatua (AVEFA); [18]): 80% |
| C/C=C/c1cc(C)c(C2C(=O)CC(CC(=O)NC(C)C)C2=O)c(C)c1 (stereo not shown) [Compound B245] |  |  |  |  |  |  |  |  | pest or weed control at 250 g/ha ([1]; post-emergence, 360 h, POST-emergence, rate 250 g/ha, visual score 15 DAA (100%=total damage, 0%=no damage), read-out: Post-emergence herbicidal activity (percentage phytotoxicity) ECHCG POST): 100%; pest or weed control at 250 g/ha ([1]; pre-emergence, 480 h, PRE-emergence, rate 250 g/ha, visual score 20 DAA (100%=total damage, 0%=no damage), read-out: Pre-emergence herbicidal activity (percentage phytotoxicity) ECHCG PRE): 90%; pest or weed control at 250 g/ha ([2]; post-emergence, 360 h, POST-emergence, rate 250 g/ha, visual score 15 DAA (100%=total damage, 0%=no damage), read-out: Post-emergence herbicidal activity (percentage phytotoxicity) ALOMY POST): 100%; pest or weed control at 250 g/ha ([2]; pre-emergence, 480 h, PRE-emergence, rate 250 g/ha, visual score 20 DAA (100%=total damage, 0%=no damage), read-out: Pre-emergence herbicidal activity (percentage phytotoxicity) ALOMY PRE): 100%; pest or weed control at 250 g/ha (Lolium perenne (LOLPE); post-emergence, 360 h, POST-emergence, rate 250 g/ha, visual score 15 DAA (100%=total damage, 0%=no damage), read-out: Post-emergence herbicidal activity (percentage phytotoxicity) LOLPE POST): 100%; pest or weed control at 250 g/ha (Lolium perenne (LOLPE); pre-emergence, 480 h, PRE-emergence, rate 250 g/ha, visual score 20 DAA (100%=total damage, 0%=no damage), read-out: Pre-emergence herbicidal activity (percentage phytotoxicity) LOLPE PRE): 90%; pest or weed control at 250 g/ha (Avena fatua (AVEFA); post-emergence, 360 h, POST-emergence, rate 250 g/ha, visual score 15 DAA (100%=total damage, 0%=no damage), read-out: Post-emergence herbicidal activity (percentage phytotoxicity) AVEFA POST): 100%; pest or weed control at 250 g/ha (Avena fatua (AVEFA); pre-emergence, 480 h, PRE-emergence, rate 250 g/ha, visual score 20 DAA (100%=total damage, 0%=no damage), read-out: Pre-emergence herbicidal activity (percentage phytotoxicity) AVEFA PRE): 90% |
| Cc1cc(C)c(C2C(=O)CC(CC(=O)NCC=C(Cl)Cl)C2=O)c(C)c1 (stereo not shown) [Compound B159] | 80 | 90 | 70 | 80 | 90 | 90 | 90 | 0 |  |
| CC(C)=CCNC(=O)CC1CC(=O)C(c2c(C)cc(C)cc2C)C1=O (stereo not shown) [Compound B163] | 90 | 90 | 80 | 90 | 80 | 100 | 80 | 50 |  |
| C#CC(C)(C)NC(=O)CC1CC(=O)C(c2c(C)cc(C#CC)cc2C)C1=O (single isomer, unassigned) [Compound A56] |  |  |  |  |  |  |  |  | pest or weed control at 250 g/ha ([1]; post-emergence, 360 h, Rate 250 g/ha, post-emergence, assessed visually 15 DAA, 100%=total damage, 0%=no damage, read-out: Post-emergence herbicidal activity (percentage phytotoxicity) ECHCG POST): 100%; pest or weed control at 250 g/ha ([1]; pre-emergence, 480 h, Rate 250 g/ha, pre-emergence, assessed visually 20 DAA, 100%=total damage, 0%=no damage, read-out: Pre-emergence herbicidal activity (percentage phytotoxicity) ECHCG PRE): 100%; pest or weed control at 250 g/ha ([2]; post-emergence, 360 h, Rate 250 g/ha, post-emergence, assessed visually 15 DAA, 100%=total damage, 0%=no damage, read-out: Post-emergence herbicidal activity (percentage phytotoxicity) ALOMY POST): 100%; pest or weed control at 250 g/ha ([2]; pre-emergence, 480 h, Rate 250 g/ha, pre-emergence, assessed visually 20 DAA, 100%=total damage, 0%=no damage, read-out: Pre-emergence herbicidal activity (percentage phytotoxicity) ALOMY PRE): 100%; pest or weed control at 250 g/ha (Lolium perenne (LOLPE); post-emergence, 360 h, Rate 250 g/ha, post-emergence, assessed visually 15 DAA, 100%=total damage, 0%=no damage, read-out: Post-emergence herbicidal activity (percentage phytotoxicity) LOLPE POST): 90%; pest or weed control at 250 g/ha (Lolium perenne (LOLPE); pre-emergence, 480 h, Rate 250 g/ha, pre-emergence, assessed visually 20 DAA, 100%=total damage, 0%=no damage, read-out: Pre-emergence herbicidal activity (percentage phytotoxicity) LOLPE PRE): 90%; pest or weed control at 250 g/ha (Avena fatua (AVEFA); post-emergence, 360 h, Rate 250 g/ha, post-emergence, assessed visually 15 DAA, 100%=total damage, 0%=no damage, read-out: Post-emergence herbicidal activity (percentage phytotoxicity) AVEFA POST): 100%; pest or weed control at 250 g/ha (Avena fatua (AVEFA); pre-emergence, 480 h, Rate 250 g/ha, pre-emergence, assessed visually 20 DAA, 100%=total damage, 0%=no damage, read-out: Pre-emergence herbicidal activity (percentage phytotoxicity) AVEFA PRE): 90% |
| Cc1cc(C)c(C2C(=O)CC(CC(=O)NCc3ncccc3C)C2=O)c(C)c1 (stereo not shown) [Compound B67] | 80 | 90 | 90 | 90 | 70 | 90 | 80 | 10 |  |
| C=CCNC(=O)CC1CC(=O)C(c2c(C)cc(-c3ccc(Cl)cn3)cc2C)C1=O (stereo not shown) [Compound B370] |  |  |  |  |  |  |  |  | pest or weed control at 250 g/ha [1, 11]: 100%; pest or weed control at 250 g/ha [1, 12]: 100%; pest or weed control at 250 g/ha [2, 13]: 90%; pest or weed control at 250 g/ha [2, 14]: 100%; pest or weed control at 250 g/ha (Lolium perenne (LOLPE); [15]): 100%; pest or weed control at 250 g/ha (Lolium perenne (LOLPE); [16]): 100%; pest or weed control at 250 g/ha (Avena fatua (AVEFA); [17]): 100%; pest or weed control at 250 g/ha (Avena fatua (AVEFA); [18]): 100% |
| Cc1cc(-c2ncc(Cl)cc2F)cc(C)c1C1C(=O)CC(CC(=O)NCCF)C1=O (stereo not shown) [Compound B95] | 100 | 100 | 100 | 100 | 100 | 100 | 100 | 100 |  |
